Key:
L. lactis IL1403 Nis^R = assay: MIC determination (nisin sensitivity assay); assay type: cell-based, Lactococcus lactis
Procedure: Generation of nisin-resistant variants of L. lactis IL1403― A nisin stock solution was derived from nisaplin, (2.5% nisin, Aplin and Barrett, Danisco, Denmark) as described earlier (44). Nisin-resistant isogenic variants of L. lactis IL1403 were obtained by growing the strain in broth, while stepwise increasing the nisin concentration, as described before (29).
Nisin sensitivity assays― Sensitivity to nisin was determined essentially as described before (32) for the strains L. lactis NZ9000, L. lactis NZ9000 ΔgalAMK, L. lactis MG1363 and L. lactis MG1363 ΔdltD (16). For the strains of L. lactis NZ9000 (pNZ8048) and L. lactis NZ9000 (pJK1), the cells were diluted 50-fold in fresh medium. At an OD600 of 0.2 the cells of both cultures were induced with 4 µg/L nisin for 2 h. Nisin induction of PnisA in the pNZ8048 derivatives was performed as described by de Ruyter et al. (12). Outgrowth in all wells was determined at the moment when wells containing cells without nisin had reached an OD595 of 0.8, measured in an ELISA micro titer plate reader (Spectramax plus 384, Molecular Devices, Wageningen, the Netherlands). MIC values were calculated from the lowest concentration of nisin at which growth of the test strain was inhibited.

M. flavus Nis^R = assay: Determination of the Minimal Inhibitory Concentration (Example 2); assay type: cell-based, Micrococcus flavus; conditions: cross-resistance of the Nis^R strains
Procedure: M. flavus and L. lactis were grown overnight at their optimum growth conditions. The Nis^R variants were grown in the presence of nisin (3 mg/L). The MIC values were estimated essentially as described before (23).

In the case of `C=C1NC(=O)[C@@H]2NC(=O)[C@H](CC(C)C)NC(=O)[C@H](NC(=O)[C@@H]3CS[C@@H](C)[C@@H](NC(=O)[C@H](Cc4ccccc4)NC(=O)[C@@H]4NC(=O)[C@@H](N)CS[C@H]4C)C(=O)N[C@@H](CC(C)C)C(=O)N4CCC[C@H]4C(=O)NCC(=O)NCC(=O)NCC(=O)NCC(=O)N[C@@H](C(C)C)C(=O)N3)[C@H](C)SC[C@H](NC(=O)[C@H](CCC(=O)O)NC1=O)C(=O)N[C@@H]([C@@H](C)CC)C(=O)N/C=C\S[C@H]2C` [Mersacidin, mersacidin], the cross-resistance (L. lactis IL1403 Nis^R) is reported as “no cross-resistance” and the “change in MIC in the nisin resistant strain” value (M. flavus Nis^R) is reported as “No change”.
